The values below come from patent publication US7041681B2, “Compounds as opioid receptor modulators” (Janssen Pharmaceutica N.V., priority 2002, dated 2006).

Broadly, the Ki is the dissociation constant of the complex between target and ligand, obtained from inhibition or displacement.

One assay addresses T1, mu opioid receptor (Rattus norvegicus, UniProt P33535).
T1 construct: from tissue; host or cells: rat forebrain homogenate (Wistar rat)
Briefly: Rat Brain mu Opioid Receptor Binding Assay. The conditions noted are these: rat forebrain membranes, ~0.8 nM [3H]DAMGO, 25° C., 2.5 h; read-out: μ-opioid binding (Ki). Here is the method: (§1) Male, Wistar rats (150–250 g, VAF, Charles River, Kingston, N.Y.) are killed by cervical dislocation, and their brains removed and placed immediately in ice cold Tris HCl buffer (50 mM, pH 7.4). The forebrains are separated from the remainder of the brain by a coronal transection, beginning dorsally at the colliculi and passing ventrally through the midbrain-pontine junction. After dissection, the forebrains are homogenized in Tris buffer in a Teflon®-glass homogenizer. The homogenize is diluted to a concentration of 1 g of forebrain tissue per 80 mL Tris and centrifuged at 39,000×g for 10 min. The pellet is resuspended in the same volume of Tris buffer containing 5 mM MgCl2 with several brief pulses from a Polytron homogenizer. This particulate preparation is used for the mu-opioid binding assays. Following incubation with the mu selective peptide ligand ˜0.8 nM [^3H]DAMGO at 25° C. for 2.5 h in a 96-well plate with total 1 ml, the plate contents are filtered through Wallac filtermat B sheets on a Tomtec 96-well harvester. The filters are rinsed three times with 2 mL of 10 mM HEPES (pH7.4), and dried in a microwave oven 1:45 min twice. To each sample area 2×40 μl of Betaplate Scint scintillation fluid (LKB) is added and analyzed on a LKB (Wallac) 1205 BetaPlate liquid scintillation counter.
(§2) The data are used to calculate either the % inhibition compared to control binding (when only a single concentration of test compound is evaluated) or a Ki value (when a range of concentrations is tested). % inhibition is calculated as: [(total dpm-test compound dpm dpm)/(total dpm-nonspecific dpm)]*100. Kd and Ki values were calculated using GraphPad PRISM data analysis program.

The next assay has as its target T2, delta opioid receptor (Rattus norvegicus, UniProt P33533).
T2 construct: from tissue; host or cells: rat forebrain homogenate (Wistar rat)
Briefly: Rat Brain Delta Opioid Receptor Binding Assay. The conditions noted are these: rat forebrain membranes, ~4 nM [3H]DPDPE, 25° C., 2.5 h; read-out: δ-opioid binding (Ki). Here is the method:
as §1, with “delta opioid” for “mu-opioid”, “delta” for “mu”, “˜4” for “˜0.8”, “[^3H]DPDPE” for “[^3H]DAMGO”, “total volume of” for “total”
as §2

Each structure is given as a SMILES string.

T2 sequence (P33533 whole entry): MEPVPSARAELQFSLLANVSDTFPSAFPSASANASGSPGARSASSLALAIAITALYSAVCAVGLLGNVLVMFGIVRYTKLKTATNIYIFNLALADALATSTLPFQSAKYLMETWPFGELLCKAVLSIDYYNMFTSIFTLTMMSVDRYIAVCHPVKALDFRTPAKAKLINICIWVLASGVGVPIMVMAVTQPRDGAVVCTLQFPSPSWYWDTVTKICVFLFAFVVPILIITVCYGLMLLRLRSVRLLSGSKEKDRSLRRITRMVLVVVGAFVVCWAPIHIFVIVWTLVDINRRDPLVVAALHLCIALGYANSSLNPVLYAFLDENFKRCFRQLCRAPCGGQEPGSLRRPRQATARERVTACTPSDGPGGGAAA
T1 sequence (P33535 whole entry): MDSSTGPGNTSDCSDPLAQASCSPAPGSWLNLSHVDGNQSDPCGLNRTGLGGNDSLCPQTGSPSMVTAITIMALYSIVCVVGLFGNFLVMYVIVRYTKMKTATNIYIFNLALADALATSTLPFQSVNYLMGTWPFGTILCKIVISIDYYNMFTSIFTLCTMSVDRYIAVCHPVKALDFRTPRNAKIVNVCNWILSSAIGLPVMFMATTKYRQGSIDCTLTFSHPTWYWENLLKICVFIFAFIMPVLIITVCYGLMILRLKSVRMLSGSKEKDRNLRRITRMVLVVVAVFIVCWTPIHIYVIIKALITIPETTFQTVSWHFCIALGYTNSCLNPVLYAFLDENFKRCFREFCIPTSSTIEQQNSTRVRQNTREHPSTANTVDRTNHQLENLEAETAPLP

As for `CCNC(=O)c1ccc(C[C@H](N)C(=O)N2CCCC[C@H]2c2nc(-c3ccccc3)c[nH]2)cc1` [Cmpd 1], the Ki on mu opioid receptor was 0.15 nM; on delta opioid receptor it was 20.9 nM.
For `CN1CCN(C(=O)c2ccc(C[C@H](N)C(=O)N3CCCC[C@H]3c3nc(-c4ccccc4)c[nH]3)cc2)CC1` [Cmpd 3], the Ki at mu opioid receptor and at delta opioid receptor was 10000 nM throughout.
Turning to `CN(C)C(=O)c1ccc(C[C@H](N)C(=O)N2CCCC[C@H]2c2nc(-c3ccccc3)c[nH]2)cc1` [Cmpd 4], the Ki on mu opioid receptor was determined as 135 nM; at delta opioid receptor, 764 nM.
Regarding `N[C@@H](Cc1ccc(S(N)(=O)=O)cc1)C(=O)N1CCCC[C@H]1c1nc(-c2ccccc2)c[nH]1` [Cmpd 5], the figures for the Ki at mu opioid receptor and at delta opioid receptor were 40.8 nM and 6180 nM, respectively.
Taken in the same sequence, the figures for `Cc1cc(C(N)=O)cc(C)c1CC(N)C(=O)N1CCCCC1c1nc(-c2ccccc2)c[nH]1` (centres unmarked) [Cmpd 6] were 0.13 nM and 13.9 nM.
For the molecule `NC(=O)c1cccc(CC(N)C(=O)N2CCCCC2c2nc(-c3ccccc3)c[nH]2)c1` (centres unmarked) [Cmpd 7], the Ki stood at 88.3 nM at mu opioid receptor and 6070 nM at delta opioid receptor.
For `N#Cc1cccc(C[C@H](N)C(=O)N2CCCC[C@H]2c2nc(-c3ccccc3)c[nH]2)c1` [Cmpd 8], the Ki was 207 nM at mu opioid receptor and 10000 nM on delta opioid receptor.
With `N[C@@H](Cc1ccc(C(=O)O)cc1)C(=O)N1CCCC[C@H]1c1nc(-c2ccccc2)c[nH]1` [Cmpd 9], the Ki at mu opioid receptor is 26.8 nM; on delta opioid receptor it was 606 nM.
Regarding `CC(=O)c1ccc(C[C@H](N)C(=O)N2CCCC[C@H]2c2nc(-c3ccccc3)c[nH]2)cc1` [Cmpd 10], the results for the Ki at mu opioid receptor and at delta opioid receptor were 23.6 nM and 933 nM, respectively.
Regarding `N[C@@H](Cc1ccc(C(=O)Nc2ccccc2)cc1)C(=O)N1CCCC[C@H]1c1nc(-c2ccccc2)c[nH]1` [Cmpd 13], the Ki at mu opioid receptor was 27.7 nM; on delta opioid receptor, 656 nM.
Consider `NC(Cc1ccc(C(=O)NCCO)cc1)C(=O)N1CCCCC1c1nc(-c2ccccc2)c[nH]1` (centres unmarked) [Cmpd 14], for which the Ki worked out at 9.3 nM at mu opioid receptor and 5140 nM at delta opioid receptor.
Taken in the same sequence, the figures for `NC(=O)c1ccc(C[C@H](N)C(=O)N2CCCC[C@H]2c2nc(-c3ccccc3)c[nH]2)cc1` [Cmpd 15] were 2.6 nM and 65.3 nM.
Take `Nc1cc(C[C@H](N)C(=O)N2CCCC[C@H]2c2nc(-c3ccccc3)c[nH]2)ccc1O` [Cmpd 16]: the Ki on mu opioid receptor came out at 115 nM; on delta opioid receptor it was 5330 nM.
Regarding `N[C@@H](Cc1ccc(O)c([N+](=O)[O-])c1)C(=O)N1CCCC[C@H]1c1nc(-c2ccccc2)c[nH]1` [Cmpd 17], the Ki worked out at 320 nM at mu opioid receptor and 5120 nM at delta opioid receptor.
With `NCc1ccc(C[C@H](N)C(=O)N2CCCC[C@H]2c2nc(-c3ccccc3)c[nH]2)cc1` [Cmpd 18], the Ki on mu opioid receptor came to 409 nM; on delta opioid receptor it was 7520 nM.
`Cc1cc(O)cc(C)c1CC(N)C(=O)N1CCCCC1c1nc(-c2ccccc2)no1` (centres unmarked) [Cmpd 19]: the Ki worked out at 0.14 nM on mu opioid receptor and 46.3 nM at delta opioid receptor.
As to `N[C@@H](Cc1ccc(O)cc1)C(=O)N1CCCC[C@H]1c1nc(-c2ccccc2)no1` [Cmpd 20], the values for the Ki at mu opioid receptor and on delta opioid receptor were 231 nM and 10000 nM, respectively.
As for `CNC(=O)c1ccc(C[C@H](N)C(=O)N2CCCC[C@H]2c2nc(-c3ccccc3)c[nH]2)cc1` [Cmpd 21], the inhibitory constant (Ki) on mu opioid receptor came out at 0.22 nM; on delta opioid receptor, 33.9 nM.
The like results for `N[C@@H](Cc1cccc(O)c1)C(=O)N1CCCC[C@H]1c1nc(-c2ccccc2)c[nH]1` [Cmpd 22] were, in that order, 16 nM and 433 nM.
On to `N[C@@H](Cc1cc(F)c(O)c(F)c1)C(=O)N1CCCC[C@H]1c1nc(-c2ccccc2)c[nH]1` [Cmpd 24], for which the Ki on mu opioid receptor was found to be 9.27 nM; on delta opioid receptor, 5660 nM.
The like results for `CC(N)(Cc1ccc(O)cc1)C(=O)N1CCCCC1c1nc(-c2ccccc2)c[nH]1` (centres unmarked) [Cmpd 25] were, in that order, 1.69 nM and 107 nM.
Turning to `CC(N)(Cc1ccc(OCc2ccccc2)cc1)C(=O)N1CCCCC1c1nc(-c2ccccc2)c[nH]1` (centres unmarked) [Cmpd 26], the figures for the Ki on mu opioid receptor and at delta opioid receptor were 87 nM and 628 nM, respectively.
As to `COc1cc(C)c(C[C@H](N)C(=O)N2CCCC[C@H]2c2nc(-c3ccccc3)c[nH]2)c(C)c1` [Cmpd 27], the Ki was 8.56 nM at mu opioid receptor and 1000 nM on delta opioid receptor.
In the case of `CN[C@@H](Cc1c(C)cc(O)cc1C)C(=O)N1CCCC[C@H]1c1nc(-c2ccccc2)c[nH]1` [Cmpd 28], the Ki was determined as 0.3 nM on mu opioid receptor and 21.5 nM at delta opioid receptor.
As to `Cc1cc(O)cc(C)c1C[C@H](N)C(=O)N1CCCC[C@H]1c1nc(-c2ccccc2)c(C)[nH]1` [Cmpd 29], the Ki is 0.09 nM at mu opioid receptor and 0.51 nM at delta opioid receptor.
`Nc1ccc(CC(N)C(=O)N2CCCCC2c2nc(-c3ccccc3)c[nH]2)cc1` (centres unmarked) [Cmpd 30]: the values for the inhibition constant Ki on mu opioid receptor and on delta opioid receptor were 57.2 nM and 1020 nM, respectively.
Regarding `N[C@@H](Cc1ccc(O)cc1)C(=O)N1CCCC[C@@H]1c1cccc(-c2ccccc2)c1` [Cmpd 31], the inhibitory constant (Ki) amounted to 565 nM on mu opioid receptor and 10000 nM on delta opioid receptor.
With `N[C@@H](Cc1ccc(O)cc1)C(=O)N1CCCC[C@H]1c1cccc(-c2ccccc2)c1` [Cmpd 32], the Ki is 541 nM at mu opioid receptor and 5900 nM on delta opioid receptor.
The like results for `CN[C@@H](Cc1c(C)cc(OC)cc1C)C(=O)N1CCCC[C@H]1c1nc(-c2ccccc2)c[nH]1` [Cmpd 33] were, in that order, 42.9 nM and 273 nM.
`Cc1cc(O)cc(C)c1CC(N)C(=O)N1CCCCC1c1nc(-c2ccccc2)c[nH]1` (centres unmarked) [Cmpd 34]: the results for the Ki on mu opioid receptor and at delta opioid receptor were 0.05 nM and 1.86 nM, respectively.
Consider `N#Cc1ccc(C[C@H](N)C(=O)N2CCCC[C@H]2c2nc(-c3ccccc3)c[nH]2)cc1` [Cmpd 35], for which the Ki came out at 869 nM on mu opioid receptor and 476 nM on delta opioid receptor.
Consider `Cc1cc(O)cc(C)c1C[C@H](NC=O)C(=O)N1CCCC[C@H]1c1nc(-c2ccccc2)c[nH]1` [Cmpd 37], for which the Ki on mu opioid receptor was 13.3 nM; at delta opioid receptor, 5230 nM.
For the molecule `CN1CCN(C(=O)c2ccc(C[C@H](N)C(=O)N3Cc4ccccc4C[C@H]3c3nc(-c4ccccc4)c[nH]3)cc2)CC1` [Cmpd 102], the Ki on mu opioid receptor amounted to 1240 nM; at delta opioid receptor it was 5350 nM.
Consider `CN(C)C(=O)c1ccc(C[C@H](N)C(=O)N2Cc3ccccc3C[C@H]2c2nc(-c3ccccc3)c[nH]2)cc1` [Cmpd 103], for which the Ki at mu opioid receptor stood at 900 nM; on delta opioid receptor it was 578 nM.
The like results for `N[C@@H](Cc1ccc(S(N)(=O)=O)cc1)C(=O)N1Cc2ccccc2C[C@H]1c1nc(-c2ccccc2)c[nH]1` [Cmpd 104] were, in that order, 592 nM and 174 nM.
On to `Cc1cc(C(N)=O)cc(C)c1C[C@H](N)C(=O)N1Cc2ccccc2C[C@H]1c1nc(-c2ccccc2)c[nH]1` [Cmpd 105], for which the values for the Ki at mu opioid receptor and on delta opioid receptor were 1.44 nM and 0.06 nM, respectively.
In the case of `NC(Cc1ccc(C(=O)O)cc1)C(=O)N1Cc2ccccc2CC1c1nc(-c2ccccc2)c[nH]1` (centres unmarked) [Cmpd 106], the Ki turned out to be 5780 nM at mu opioid receptor and 5200 nM at delta opioid receptor.
For `N[C@@H](Cc1cc(F)c(O)c(F)c1)C(=O)N1Cc2ccccc2C[C@H]1c1nc(-c2ccccc2)c[nH]1` [Cmpd 109], the figures for the Ki at mu opioid receptor and at delta opioid receptor were 167 nM and 12.6 nM, respectively.
Taken in the same sequence, the figures for `CC(=O)c1ccc(C[C@H](N)C(=O)N2Cc3ccccc3C[C@H]2c2nc(-c3ccccc3)c[nH]2)cc1` [Cmpd 110] were 413 nM and 30.4 nM.
`N[C@@H](Cc1ccc(C(=O)Nc2ccccc2)cc1)C(=O)N1Cc2ccccc2C[C@H]1c1nc(-c2ccccc2)c[nH]1` [Cmpd 111]: the Ki at mu opioid receptor is 293 nM; at delta opioid receptor, 103 nM.
Consider `NC(Cc1ccc(C(=O)NCCO)cc1)C(=O)N1Cc2ccccc2CC1c1nc(-c2ccccc2)c[nH]1` (centres unmarked) [Cmpd 112], for which the results for the Ki on mu opioid receptor and on delta opioid receptor were 92.3 nM and 43.7 nM, respectively.
With `CC(=O)Oc1cc(C)c(CC(N)C(=O)N2Cc3ccccc3CC2c2nc(-c3ccccc3)c[nH]2)c(C)c1` (centres unmarked) [Cmpd 113], the results for the Ki at mu opioid receptor and on delta opioid receptor were 0.5 nM and 0.2 nM, respectively.
For the molecule `CS(=O)(=O)Nc1ccc(CC(N)C(=O)N2Cc3ccccc3CC2c2nc(-c3ccccc3)c[nH]2)cc1` (centres unmarked) [Cmpd 114], the Ki at mu opioid receptor was determined as 356 nM; on delta opioid receptor it was 342 nM.
